# Experimental data as given in ChEMBL document CHEMBL1127810, “Synthesis of high specific activity [3H]-9-cis-retinoic acid and its application for identifying retinoids with unusual binding properties” (J Med Chem, 1994).
# Target: T1, Retinoic acid receptor gamma (Homo sapiens, UniProt P13631)
# T1 sequence (P13631 whole entry): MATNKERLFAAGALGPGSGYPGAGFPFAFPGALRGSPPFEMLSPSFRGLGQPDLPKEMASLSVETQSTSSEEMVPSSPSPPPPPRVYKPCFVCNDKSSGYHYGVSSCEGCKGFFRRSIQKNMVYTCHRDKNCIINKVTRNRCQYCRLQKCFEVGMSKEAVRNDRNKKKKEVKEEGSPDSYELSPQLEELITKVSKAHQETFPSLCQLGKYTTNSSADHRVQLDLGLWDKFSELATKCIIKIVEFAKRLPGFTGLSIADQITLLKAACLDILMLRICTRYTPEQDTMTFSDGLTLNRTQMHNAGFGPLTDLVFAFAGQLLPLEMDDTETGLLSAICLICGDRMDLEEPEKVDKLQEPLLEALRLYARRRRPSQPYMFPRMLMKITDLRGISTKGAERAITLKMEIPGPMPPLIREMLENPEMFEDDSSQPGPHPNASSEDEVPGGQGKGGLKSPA
row,IC50 [nM],Structure (SMILES)
1,250,CCc1cc2c(cc1/C(C)=C/c1ccc(C(=O)O)cc1)C(C)(C)CCC2(C)C
2,645,C/C(=C\c1ccc(C(=O)O)cc1)c1cc2c(cc1C)C(C)(C)CCC2(C)C
3,> 1000,C/C(=C\c1ccc(C(=O)O)cc1)c1cc2c(cc1C(C)C)C(C)(C)CCC2(C)C

# Target: T2, Retinoic acid receptor RXR-alpha (Homo sapiens, UniProt P19793)
# T2 sequence (P19793 whole entry): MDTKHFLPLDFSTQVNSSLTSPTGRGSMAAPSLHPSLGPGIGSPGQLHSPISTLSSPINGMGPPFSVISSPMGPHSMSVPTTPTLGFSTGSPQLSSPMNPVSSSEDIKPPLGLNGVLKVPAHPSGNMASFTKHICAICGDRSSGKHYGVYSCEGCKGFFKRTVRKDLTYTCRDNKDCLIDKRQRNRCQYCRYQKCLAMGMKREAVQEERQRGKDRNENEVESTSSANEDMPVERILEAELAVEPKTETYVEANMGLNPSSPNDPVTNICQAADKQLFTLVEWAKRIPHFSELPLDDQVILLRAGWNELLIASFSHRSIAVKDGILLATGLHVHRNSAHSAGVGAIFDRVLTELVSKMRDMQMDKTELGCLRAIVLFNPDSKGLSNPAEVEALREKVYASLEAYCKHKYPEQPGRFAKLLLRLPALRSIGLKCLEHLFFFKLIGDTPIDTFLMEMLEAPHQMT
# Test: Binding affinity against retinoic Acid X alpha receptor using [3H]- -9-cis-Retinoic Acid in competitive binding assay
row,IC50 [nM],Structure (SMILES)
1,320,CCc1cc2c(cc1/C(C)=C/c1ccc(C(=O)O)cc1)C(C)(C)CCC2(C)C
2,32,C/C(=C\c1ccc(C(=O)O)cc1)c1cc2c(cc1C)C(C)(C)CCC2(C)C
3,> 1000,C/C(=C\c1ccc(C(=O)O)cc1)c1ccc2c(c1)C(C)(C)CCC2(C)C
4,320,C/C(=C\c1ccc(C(=O)O)cc1)c1cc2c(cc1C(C)C)C(C)(C)CCC2(C)C

# Target: T3, Retinoic acid receptor beta (Homo sapiens, UniProt P10826)
# T3 sequence (P10826 whole entry): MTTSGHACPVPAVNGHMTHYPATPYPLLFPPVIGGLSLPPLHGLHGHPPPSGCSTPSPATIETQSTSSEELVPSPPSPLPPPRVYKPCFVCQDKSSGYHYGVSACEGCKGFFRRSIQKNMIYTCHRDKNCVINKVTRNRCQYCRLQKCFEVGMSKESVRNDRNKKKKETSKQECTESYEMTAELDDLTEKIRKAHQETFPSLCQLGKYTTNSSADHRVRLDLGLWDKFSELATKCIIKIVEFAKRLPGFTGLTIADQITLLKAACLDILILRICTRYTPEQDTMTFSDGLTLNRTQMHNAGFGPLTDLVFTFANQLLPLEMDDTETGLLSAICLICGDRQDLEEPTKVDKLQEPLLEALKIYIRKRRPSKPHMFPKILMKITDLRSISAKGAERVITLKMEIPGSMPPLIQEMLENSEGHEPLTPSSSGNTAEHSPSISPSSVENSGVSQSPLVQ
# Test: Binding affinity against retinoic Acid beta receptor using [3H]- -9-cis-Retinoic Acid in competitive binding assay
row,IC50 [nM],Structure (SMILES)
1,75,CCc1cc2c(cc1/C(C)=C/c1ccc(C(=O)O)cc1)C(C)(C)CCC2(C)C
2,1170,C/C(=C\c1ccc(C(=O)O)cc1)c1cc2c(cc1C)C(C)(C)CCC2(C)C
3,150,C/C(=C\c1ccc(C(=O)O)cc1)c1cc2c(cc1C(C)C)C(C)(C)CCC2(C)C

# Target: T1, Retinoic acid receptor gamma
# Remark: another data set of the same source
# Description: Binding affinity against retinoic Acid gamma receptors co-transfected into CV-1 cells
row,EC50 [nM],Structure (SMILES)
1,23,CCc1cc2c(cc1/C(C)=C/c1ccc(C(=O)O)cc1)C(C)(C)CCC2(C)C
2,180,C/C(=C\c1ccc(C(=O)O)cc1)c1cc2c(cc1C)C(C)(C)CCC2(C)C
3,270,C/C(=C\c1ccc(C(=O)O)cc1)c1cc2c(cc1C(C)C)C(C)(C)CCC2(C)C

# Target: T2, Retinoic acid receptor RXR-alpha
# Test: Binding affinity against retinoic Acid X alpha receptors co-transfected into CV-1 cells
# Type: cell-based
row,EC50 [nM],Structure (SMILES)
1,2900,CCc1cc2c(cc1/C(C)=C/c1ccc(C(=O)O)cc1)C(C)(C)CCC2(C)C
2,1200,C/C(=C\c1ccc(C(=O)O)cc1)c1cc2c(cc1C)C(C)(C)CCC2(C)C
3,> 10000,C/C(=C\c1ccc(C(=O)O)cc1)c1ccc2c(c1)C(C)(C)CCC2(C)C
4,300,C/C(=C\c1ccc(C(=O)O)cc1)c1cc2c(cc1C(C)C)C(C)(C)CCC2(C)C

# Target: T4, Retinoic acid receptor alpha (Homo sapiens, UniProt P10276)
# T4 sequence (P10276 whole entry): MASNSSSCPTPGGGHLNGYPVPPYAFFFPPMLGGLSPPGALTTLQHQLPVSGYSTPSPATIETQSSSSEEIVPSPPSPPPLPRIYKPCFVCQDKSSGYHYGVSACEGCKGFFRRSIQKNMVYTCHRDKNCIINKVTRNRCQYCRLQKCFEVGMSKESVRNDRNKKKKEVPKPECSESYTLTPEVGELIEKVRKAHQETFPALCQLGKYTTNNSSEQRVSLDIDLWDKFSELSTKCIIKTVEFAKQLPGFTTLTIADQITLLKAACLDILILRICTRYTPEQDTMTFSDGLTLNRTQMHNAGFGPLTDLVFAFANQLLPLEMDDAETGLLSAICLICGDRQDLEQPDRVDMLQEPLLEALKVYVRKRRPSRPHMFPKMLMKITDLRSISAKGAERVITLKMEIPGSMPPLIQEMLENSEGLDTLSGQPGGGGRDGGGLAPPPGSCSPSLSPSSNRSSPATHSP
# Test: Binding affinity against retinoic Acid alpha receptor using [3H]- -9-cis-Retinoic Acid in competitive binding assay
row,IC50 [nM],Structure (SMILES)
1,100,CCc1cc2c(cc1/C(C)=C/c1ccc(C(=O)O)cc1)C(C)(C)CCC2(C)C
2,638,C/C(=C\c1ccc(C(=O)O)cc1)c1cc2c(cc1C)C(C)(C)CCC2(C)C
3,> 1000,C/C(=C\c1ccc(C(=O)O)cc1)c1cc2c(cc1C(C)C)C(C)(C)CCC2(C)C

# Target: T5, Retinoic acid receptor RXR-beta (Homo sapiens, UniProt P28702)
# T5 sequence (P28702 whole entry): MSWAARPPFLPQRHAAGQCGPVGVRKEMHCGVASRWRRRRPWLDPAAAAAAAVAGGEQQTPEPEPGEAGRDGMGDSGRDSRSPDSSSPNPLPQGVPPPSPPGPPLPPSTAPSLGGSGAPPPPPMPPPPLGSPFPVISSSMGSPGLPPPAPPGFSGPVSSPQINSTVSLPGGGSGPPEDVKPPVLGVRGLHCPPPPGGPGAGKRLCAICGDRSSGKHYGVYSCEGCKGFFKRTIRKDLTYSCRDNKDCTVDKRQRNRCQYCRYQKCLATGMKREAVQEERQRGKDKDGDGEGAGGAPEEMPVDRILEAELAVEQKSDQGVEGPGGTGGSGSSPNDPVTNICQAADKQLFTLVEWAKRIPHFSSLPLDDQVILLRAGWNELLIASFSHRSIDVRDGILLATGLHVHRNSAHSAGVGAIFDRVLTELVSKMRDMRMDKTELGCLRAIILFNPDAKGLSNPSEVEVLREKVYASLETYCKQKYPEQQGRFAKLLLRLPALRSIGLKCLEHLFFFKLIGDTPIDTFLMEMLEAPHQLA
# Test: Binding affinity against retinoic Acid X beta receptor using [3H]- -9-cis-Retinoic Acid in competitive binding assay
row,IC50 [nM],Structure (SMILES)
1,50,CCc1cc2c(cc1/C(C)=C/c1ccc(C(=O)O)cc1)C(C)(C)CCC2(C)C
2,> 1000,C/C(=C\c1ccc(C(=O)O)cc1)c1cc2c(cc1C)C(C)(C)CCC2(C)C
3,> 1000,C/C(=C\c1ccc(C(=O)O)cc1)c1ccc2c(c1)C(C)(C)CCC2(C)C
4,50,C/C(=C\c1ccc(C(=O)O)cc1)c1cc2c(cc1C(C)C)C(C)(C)CCC2(C)C

# Target: T6, Retinoic acid receptor RXR-gamma (Homo sapiens, UniProt P48443)
# T6 sequence (P48443 whole entry): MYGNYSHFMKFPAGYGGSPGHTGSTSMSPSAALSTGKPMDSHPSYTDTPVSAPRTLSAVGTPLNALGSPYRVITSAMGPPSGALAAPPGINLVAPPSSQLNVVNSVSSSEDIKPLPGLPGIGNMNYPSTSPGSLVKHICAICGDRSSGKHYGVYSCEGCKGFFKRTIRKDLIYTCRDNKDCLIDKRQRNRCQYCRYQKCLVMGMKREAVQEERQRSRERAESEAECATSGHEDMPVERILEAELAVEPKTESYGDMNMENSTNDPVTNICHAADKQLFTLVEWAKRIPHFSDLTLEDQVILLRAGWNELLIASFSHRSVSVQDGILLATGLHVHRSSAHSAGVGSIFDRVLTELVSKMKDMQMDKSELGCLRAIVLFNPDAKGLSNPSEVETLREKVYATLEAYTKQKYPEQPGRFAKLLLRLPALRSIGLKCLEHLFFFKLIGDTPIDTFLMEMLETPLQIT
# Test: Binding affinity against retinoic Acid X gamma receptor using [3H]- -9-cis-Retinoic Acid in competitive binding assay
row,IC50 [nM],Structure (SMILES)
1,10,CCc1cc2c(cc1/C(C)=C/c1ccc(C(=O)O)cc1)C(C)(C)CCC2(C)C
2,100,C/C(=C\c1ccc(C(=O)O)cc1)c1cc2c(cc1C)C(C)(C)CCC2(C)C
3,> 1000,C/C(=C\c1ccc(C(=O)O)cc1)c1ccc2c(c1)C(C)(C)CCC2(C)C
4,10,C/C(=C\c1ccc(C(=O)O)cc1)c1cc2c(cc1C(C)C)C(C)(C)CCC2(C)C

# Target: T3, Retinoic acid receptor beta
# Test: Binding affinity against retinoic Acid beta receptors co-transfected into CV-1 cells
# Type: cell-based
row,EC50 [nM],Structure (SMILES)
1,310,CCc1cc2c(cc1/C(C)=C/c1ccc(C(=O)O)cc1)C(C)(C)CCC2(C)C
2,230,C/C(=C\c1ccc(C(=O)O)cc1)c1cc2c(cc1C)C(C)(C)CCC2(C)C
3,> 10000,C/C(=C\c1ccc(C(=O)O)cc1)c1cc2c(cc1C(C)C)C(C)(C)CCC2(C)C

# Target: T4, Retinoic acid receptor alpha
# Test: Binding affinity against retinoic Acid alpha receptors co-transfected into CV-1 cells
# Type: cell-based
row,EC50 [nM],Structure (SMILES)
1,1700,CCc1cc2c(cc1/C(C)=C/c1ccc(C(=O)O)cc1)C(C)(C)CCC2(C)C
2,340,C/C(=C\c1ccc(C(=O)O)cc1)c1cc2c(cc1C)C(C)(C)CCC2(C)C
3,> 10000,C/C(=C\c1ccc(C(=O)O)cc1)c1cc2c(cc1C(C)C)C(C)(C)CCC2(C)C

# Target: T5, Retinoic acid receptor RXR-beta
# Test: Binding affinity against retinoic Acid X beta receptors co-transfected into CV-1 cells
# Type: cell-based
row,EC50 [nM],Structure (SMILES)
1,2000,CCc1cc2c(cc1/C(C)=C/c1ccc(C(=O)O)cc1)C(C)(C)CCC2(C)C
2,1170,C/C(=C\c1ccc(C(=O)O)cc1)c1cc2c(cc1C)C(C)(C)CCC2(C)C
3,> 10000,C/C(=C\c1ccc(C(=O)O)cc1)c1ccc2c(c1)C(C)(C)CCC2(C)C
4,> 10000,C/C(=C\c1ccc(C(=O)O)cc1)c1cc2c(cc1C(C)C)C(C)(C)CCC2(C)C

# Target: T6, Retinoic acid receptor RXR-gamma
# Test: Binding affinity against retinoic Acid X gamma receptors co-transfected into CV-1 cells
# Type: cell-based
row,EC50 [nM],Structure (SMILES)
1,2600,CCc1cc2c(cc1/C(C)=C/c1ccc(C(=O)O)cc1)C(C)(C)CCC2(C)C
2,1500,C/C(=C\c1ccc(C(=O)O)cc1)c1cc2c(cc1C)C(C)(C)CCC2(C)C
3,> 10000,C/C(=C\c1ccc(C(=O)O)cc1)c1ccc2c(c1)C(C)(C)CCC2(C)C
4,2700,C/C(=C\c1ccc(C(=O)O)cc1)c1cc2c(cc1C(C)C)C(C)(C)CCC2(C)C
